Test results: PubChem BioAssay AID1982 (Sanford-Burnham Center for Chemical Genomics, 2009)
Active and inactive are the calls of the source. How the calls were made is not given here.

Tests used:
Test in all cases: kinase panel binding selectivity, selectivity assay, biochemical, KINOMEscan (AID 1982)
[1] = target: Activated CDC42 kinase 1 (Homo sapiens) (UniProt Q07912); conditions: KINOMEscan 353-kinase binding panel, qPCR; TNK2; at 10 µM; hits give low values
SNARK = conditions: KINOMEscan 353-kinase binding panel, qPCR, at 10 µM, hits give low values
[2] = target: Mitogen-activated protein kinase kinase kinase 20 (Homo sapiens) (UniProt Q9NYL2); conditions: KINOMEscan 353-kinase binding panel, qPCR; ZAK; at 10 µM; hits give low values
ZAP70 = conditions: KINOMEscan 353-kinase binding panel, qPCR, at 10 µM, hits give low values
MUSK = conditions: KINOMEscan 353-kinase binding panel, qPCR, at 10 µM, hits give low values
PCTK2 = conditions: KINOMEscan 353-kinase binding panel, qPCR, at 10 µM, hits give low values
[3] = target: Mitogen-activated protein kinase kinase kinase kinase 2 (Homo sapiens) (UniProt Q12851); conditions: KINOMEscan 353-kinase binding panel, qPCR; MAP4K2; at 10 µM; hits give low values
[4] = target: Glycogen synthase kinase-3 beta (Homo sapiens) (UniProt P49841); conditions: KINOMEscan 353-kinase binding panel, qPCR; GSK3B; at 10 µM; hits give low values
p38-beta = conditions: KINOMEscan 353-kinase binding panel, qPCR, at 10 µM, hits give low values
[5] = target: Serine/threonine-protein kinase PAK 5 (Homo sapiens) (UniProt Q9P286); conditions: KINOMEscan 353-kinase binding panel, qPCR; PAK7/PAK5; at 10 µM; hits give low values
[6] = target: Uncharacterized serine/threonine-protein kinase SBK3 (Homo sapiens) (UniProt P0C264); conditions: KINOMEscan 353-kinase binding panel, qPCR; SgK110; at 10 µM; hits give low values
CSNK1E = conditions: KINOMEscan 353-kinase binding panel, qPCR, at 10 µM, hits give low values
PAK2 = conditions: KINOMEscan 353-kinase binding panel, qPCR, at 10 µM, hits give low values
[7] = target: Serine/threonine-protein kinase PAK 1 (Homo sapiens) (UniProt Q13153); conditions: KINOMEscan 353-kinase binding panel, qPCR; PAK1; at 10 µM; hits give low values
Chain of Serine/threonine-protein kinase PAK 1 (Homo sapiens) (Q13153 whole entry, looked up): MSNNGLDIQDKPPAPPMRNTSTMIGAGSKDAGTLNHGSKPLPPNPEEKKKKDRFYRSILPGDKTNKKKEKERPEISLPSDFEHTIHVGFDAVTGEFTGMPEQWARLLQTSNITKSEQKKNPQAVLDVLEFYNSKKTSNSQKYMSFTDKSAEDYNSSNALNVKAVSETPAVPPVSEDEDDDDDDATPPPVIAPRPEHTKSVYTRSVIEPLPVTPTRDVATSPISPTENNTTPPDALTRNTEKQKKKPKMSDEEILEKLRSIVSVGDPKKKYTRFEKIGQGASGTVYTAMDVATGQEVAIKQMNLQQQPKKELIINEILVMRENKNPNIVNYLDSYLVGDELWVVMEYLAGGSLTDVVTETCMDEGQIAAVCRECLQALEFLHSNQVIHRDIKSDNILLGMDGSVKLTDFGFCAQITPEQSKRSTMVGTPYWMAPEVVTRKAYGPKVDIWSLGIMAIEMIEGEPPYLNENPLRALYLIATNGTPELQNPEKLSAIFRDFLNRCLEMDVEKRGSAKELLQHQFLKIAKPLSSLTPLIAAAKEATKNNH

[8] = target: Macrophage-stimulating protein receptor (Homo sapiens) (UniProt Q04912); conditions: KINOMEscan 353-kinase binding panel, qPCR; MST1R; at 10 µM; hits give low values
[9] = target: Mitogen-activated protein kinase 12 (Homo sapiens) (UniProt P53778); conditions: KINOMEscan 353-kinase binding panel, qPCR; p38-gamma; at 10 µM; hits give low values
NEK5 = conditions: KINOMEscan 353-kinase binding panel, qPCR, at 10 µM, hits give low values
[10] = target: Ribosomal protein S6 kinase alpha-4 (Homo sapiens) (UniProt O75676); conditions: KINOMEscan 353-kinase binding panel, qPCR, at 10 µM, hits give low values
Chain of Ribosomal protein S6 kinase alpha-4 (Homo sapiens) (O75676 whole entry, looked up): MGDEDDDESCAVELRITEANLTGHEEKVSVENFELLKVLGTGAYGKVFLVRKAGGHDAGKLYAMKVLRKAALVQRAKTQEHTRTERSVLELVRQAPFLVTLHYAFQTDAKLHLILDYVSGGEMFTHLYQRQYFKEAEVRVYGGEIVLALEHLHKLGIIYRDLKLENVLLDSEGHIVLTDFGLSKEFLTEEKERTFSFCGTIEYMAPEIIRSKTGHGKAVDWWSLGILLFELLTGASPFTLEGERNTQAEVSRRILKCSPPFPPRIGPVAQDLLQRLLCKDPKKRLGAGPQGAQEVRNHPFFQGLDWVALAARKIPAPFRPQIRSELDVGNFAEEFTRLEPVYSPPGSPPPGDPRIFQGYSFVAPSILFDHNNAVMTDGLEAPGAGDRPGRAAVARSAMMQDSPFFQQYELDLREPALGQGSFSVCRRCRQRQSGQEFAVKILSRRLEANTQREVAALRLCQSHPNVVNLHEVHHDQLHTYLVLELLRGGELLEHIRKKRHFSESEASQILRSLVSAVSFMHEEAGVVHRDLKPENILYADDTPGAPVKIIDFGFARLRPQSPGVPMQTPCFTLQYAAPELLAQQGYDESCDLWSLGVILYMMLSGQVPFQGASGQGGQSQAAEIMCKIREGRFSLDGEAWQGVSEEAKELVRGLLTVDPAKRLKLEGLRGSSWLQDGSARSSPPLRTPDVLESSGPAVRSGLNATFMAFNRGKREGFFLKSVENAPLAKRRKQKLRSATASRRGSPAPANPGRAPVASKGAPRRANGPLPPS

[11] = target: Tyrosine-protein kinase Srms (Homo sapiens) (UniProt Q9H3Y6); conditions: KINOMEscan 353-kinase binding panel, qPCR, at 10 µM, hits give low values
[12] = target: Proto-oncogene tyrosine-protein kinase ROS (Homo sapiens) (UniProt P08922); conditions: KINOMEscan 353-kinase binding panel, qPCR; ROS1; at 10 µM; hits give low values
[13] = target: Tyrosine-protein kinase FRK (Homo sapiens) (UniProt P42685); conditions: KINOMEscan 353-kinase binding panel, qPCR, at 10 µM, hits give low values
AMPK-alpha2 = conditions: KINOMEscan 353-kinase binding panel, qPCR, at 10 µM, hits give low values
[14] = target: MAP kinase-activated protein kinase 2 (Homo sapiens) (UniProt P49137); conditions: KINOMEscan 353-kinase binding panel, qPCR; MAPKAPK2; at 10 µM; hits give low values
[15] = target: BDNF/NT-3 growth factors receptor (Homo sapiens) (UniProt Q16620); conditions: KINOMEscan 353-kinase binding panel, qPCR; TRKB; at 10 µM; hits give low values
CSNK1A1L = conditions: KINOMEscan 353-kinase binding panel, qPCR, at 10 µM, hits give low values
[16] = target: LIM domain kinase 1 (Homo sapiens) (UniProt P53667); conditions: KINOMEscan 353-kinase binding panel, qPCR; LIMK1; at 10 µM; hits give low values
Chain of LIM domain kinase 1 (Homo sapiens) (P53667 whole entry, looked up, the tested form may be a part): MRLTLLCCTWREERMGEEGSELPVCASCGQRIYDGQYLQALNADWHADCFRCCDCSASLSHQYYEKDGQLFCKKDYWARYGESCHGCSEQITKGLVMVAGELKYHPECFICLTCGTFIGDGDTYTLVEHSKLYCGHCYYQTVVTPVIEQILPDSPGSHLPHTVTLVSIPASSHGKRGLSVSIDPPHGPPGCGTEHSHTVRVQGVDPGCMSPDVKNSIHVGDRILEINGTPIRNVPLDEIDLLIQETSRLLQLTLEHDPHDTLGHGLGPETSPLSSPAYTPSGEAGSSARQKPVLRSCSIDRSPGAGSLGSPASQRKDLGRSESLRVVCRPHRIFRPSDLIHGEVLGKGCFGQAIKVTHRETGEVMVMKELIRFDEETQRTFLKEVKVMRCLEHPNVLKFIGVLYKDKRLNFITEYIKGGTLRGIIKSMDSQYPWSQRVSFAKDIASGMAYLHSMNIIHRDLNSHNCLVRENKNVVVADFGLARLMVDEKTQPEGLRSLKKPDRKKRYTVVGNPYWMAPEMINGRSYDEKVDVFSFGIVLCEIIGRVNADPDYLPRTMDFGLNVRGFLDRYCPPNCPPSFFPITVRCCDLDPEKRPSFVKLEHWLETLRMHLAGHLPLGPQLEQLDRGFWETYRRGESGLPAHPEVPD

MST3 = conditions: KINOMEscan 353-kinase binding panel, qPCR, at 10 µM, hits give low values
[17] = target: Fibroblast growth factor receptor 3 (Homo sapiens) (UniProt P22607); conditions: KINOMEscan 353-kinase binding panel, qPCR, at 10 µM, hits give low values
Chain of Fibroblast growth factor receptor 3 (Homo sapiens) (P22607 whole entry, looked up): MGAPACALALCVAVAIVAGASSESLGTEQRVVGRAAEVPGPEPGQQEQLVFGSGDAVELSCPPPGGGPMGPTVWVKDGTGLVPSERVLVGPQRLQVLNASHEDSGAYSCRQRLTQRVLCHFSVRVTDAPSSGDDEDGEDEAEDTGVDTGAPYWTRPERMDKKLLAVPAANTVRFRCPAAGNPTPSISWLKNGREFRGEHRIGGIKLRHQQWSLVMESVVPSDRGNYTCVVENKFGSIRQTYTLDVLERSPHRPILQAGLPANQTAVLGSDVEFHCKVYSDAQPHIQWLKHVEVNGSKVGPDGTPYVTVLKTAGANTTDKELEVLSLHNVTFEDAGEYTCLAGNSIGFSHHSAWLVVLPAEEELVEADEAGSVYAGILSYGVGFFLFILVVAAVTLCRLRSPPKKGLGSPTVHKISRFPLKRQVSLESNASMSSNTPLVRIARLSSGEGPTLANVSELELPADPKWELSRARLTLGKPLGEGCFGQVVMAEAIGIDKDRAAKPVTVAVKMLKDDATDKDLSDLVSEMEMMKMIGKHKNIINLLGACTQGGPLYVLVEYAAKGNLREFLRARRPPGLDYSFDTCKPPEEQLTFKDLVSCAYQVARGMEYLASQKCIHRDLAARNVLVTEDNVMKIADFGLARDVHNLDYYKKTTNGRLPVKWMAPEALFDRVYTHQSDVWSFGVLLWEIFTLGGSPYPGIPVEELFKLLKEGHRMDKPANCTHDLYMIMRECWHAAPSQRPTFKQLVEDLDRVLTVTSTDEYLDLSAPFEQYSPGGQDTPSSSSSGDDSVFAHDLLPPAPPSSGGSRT

[18] = target: Proto-oncogene tyrosine-protein kinase receptor Ret (Homo sapiens) (UniProt P07949); conditions: KINOMEscan 353-kinase binding panel, qPCR, at 10 µM, hits give low values
Chain of Proto-oncogene tyrosine-protein kinase receptor Ret (Homo sapiens) (P07949 whole entry, looked up): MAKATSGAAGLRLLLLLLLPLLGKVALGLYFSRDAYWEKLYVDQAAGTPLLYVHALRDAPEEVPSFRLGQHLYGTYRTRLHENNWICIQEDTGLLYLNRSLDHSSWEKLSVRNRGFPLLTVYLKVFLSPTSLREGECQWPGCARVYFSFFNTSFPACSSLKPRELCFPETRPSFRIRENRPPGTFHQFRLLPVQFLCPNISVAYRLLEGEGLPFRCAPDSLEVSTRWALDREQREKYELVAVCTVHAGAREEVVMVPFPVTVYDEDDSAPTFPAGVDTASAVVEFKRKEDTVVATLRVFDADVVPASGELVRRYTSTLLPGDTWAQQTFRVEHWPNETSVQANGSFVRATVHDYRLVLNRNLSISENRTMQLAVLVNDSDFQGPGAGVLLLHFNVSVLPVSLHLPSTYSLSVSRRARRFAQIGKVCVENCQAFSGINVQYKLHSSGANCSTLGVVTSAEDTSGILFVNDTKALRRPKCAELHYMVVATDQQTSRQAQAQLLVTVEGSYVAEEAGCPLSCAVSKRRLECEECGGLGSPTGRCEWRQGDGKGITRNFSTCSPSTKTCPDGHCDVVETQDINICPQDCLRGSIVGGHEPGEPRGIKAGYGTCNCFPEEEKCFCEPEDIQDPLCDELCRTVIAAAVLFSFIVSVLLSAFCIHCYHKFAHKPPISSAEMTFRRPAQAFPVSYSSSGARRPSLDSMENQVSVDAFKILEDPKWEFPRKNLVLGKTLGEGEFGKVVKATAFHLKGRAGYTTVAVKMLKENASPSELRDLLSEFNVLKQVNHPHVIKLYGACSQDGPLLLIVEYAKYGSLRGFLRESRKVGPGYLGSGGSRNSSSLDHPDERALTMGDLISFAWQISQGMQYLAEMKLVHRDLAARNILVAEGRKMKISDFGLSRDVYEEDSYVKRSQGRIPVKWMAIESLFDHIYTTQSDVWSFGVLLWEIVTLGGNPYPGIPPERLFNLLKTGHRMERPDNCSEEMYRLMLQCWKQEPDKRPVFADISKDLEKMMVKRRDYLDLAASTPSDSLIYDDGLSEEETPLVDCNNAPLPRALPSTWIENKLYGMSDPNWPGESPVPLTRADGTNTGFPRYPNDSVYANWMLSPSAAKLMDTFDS

JNK1 = conditions: KINOMEscan 353-kinase binding panel, qPCR, at 10 µM, hits give low values
LATS1 = conditions: KINOMEscan 353-kinase binding panel, qPCR, at 10 µM, hits give low values

Measured: percent of control binding

Chain of Activated CDC42 kinase 1 (Homo sapiens) (Q07912 whole entry, looked up): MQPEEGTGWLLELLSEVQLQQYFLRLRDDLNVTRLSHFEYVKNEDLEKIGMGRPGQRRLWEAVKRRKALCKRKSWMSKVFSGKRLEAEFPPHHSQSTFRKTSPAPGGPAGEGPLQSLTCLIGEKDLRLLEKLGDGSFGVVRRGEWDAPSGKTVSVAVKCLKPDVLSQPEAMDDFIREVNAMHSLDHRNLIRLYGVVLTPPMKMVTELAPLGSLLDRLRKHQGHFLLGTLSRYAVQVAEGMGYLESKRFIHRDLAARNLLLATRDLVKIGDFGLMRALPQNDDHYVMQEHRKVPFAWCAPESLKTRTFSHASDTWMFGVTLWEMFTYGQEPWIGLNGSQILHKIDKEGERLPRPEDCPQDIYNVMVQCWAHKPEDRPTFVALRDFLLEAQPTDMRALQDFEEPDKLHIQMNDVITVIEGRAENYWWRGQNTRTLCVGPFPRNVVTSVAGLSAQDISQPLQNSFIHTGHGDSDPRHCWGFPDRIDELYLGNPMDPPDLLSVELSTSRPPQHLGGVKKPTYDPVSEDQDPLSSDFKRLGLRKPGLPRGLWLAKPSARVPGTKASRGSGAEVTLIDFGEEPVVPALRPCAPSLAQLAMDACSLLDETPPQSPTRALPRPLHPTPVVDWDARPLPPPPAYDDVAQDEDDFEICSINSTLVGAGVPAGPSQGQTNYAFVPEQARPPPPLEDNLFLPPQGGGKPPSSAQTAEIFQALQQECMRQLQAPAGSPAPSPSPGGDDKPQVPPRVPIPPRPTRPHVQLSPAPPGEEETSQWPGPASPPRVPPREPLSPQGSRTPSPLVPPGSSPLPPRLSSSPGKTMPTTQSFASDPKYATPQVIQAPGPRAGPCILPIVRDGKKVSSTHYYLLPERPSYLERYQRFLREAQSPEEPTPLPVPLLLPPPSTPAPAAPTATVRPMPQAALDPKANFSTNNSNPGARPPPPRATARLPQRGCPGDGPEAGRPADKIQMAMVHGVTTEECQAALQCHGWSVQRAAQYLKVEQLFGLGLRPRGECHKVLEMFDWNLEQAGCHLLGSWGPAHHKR

Cc1cc2nc(NCCCO)n(CC(=O)c3cc(C(C)(C)C)c(O)c(C(C)(C)C)c3)c2cc1C
inactive: [1] 98% | SNARK 80% | [2] 93% | ZAP70 70% | MUSK 100% | PCTK2 99% | [3] 89% | [4] 100% | p38-beta 100% | [5] 79% | [6] 96% | CSNK1E 96% | PAK2 84% | [7] 67% | [8] 100% | [9] 95% | NEK5 91% | [10]; RPS6KA4(Kin.Dom.1) 100% | [10]; RPS6KA4(Kin.Dom.2) 100% | [11] 100% | [12] 100% | [13] 89% | AMPK-alpha2 100% | [14] 81% | [15] 100% | CSNK1A1L 99% | [16] 95% | MST3 100% | [17]; FGFR3(G697C) 100% | [17]; FGFR3 80% | [18] 97% | [18]; RET(M918T) 100% | [18]; RET(V804L) 100% | [18]; RET(V804M) 99% | JNK1 100% | LATS1 94%
